Measurements as given in patent publication US11981954B2, “Compositions and methods for rapid identification and phenotypic antimicrobial susceptibility testing of bacteria and fungi” (priority 2019, dated 2024).

Experiments:
Conditions in all cases: interpreted according to CLSI M100 ED 30, confirmed by PCR ID/AST after 4 h incubation, 5E5 CFU/mL
E. faecium strain 18483 = assay: PCR-based rapid ID/AST and CLSI susceptibility interpretation, E. faecium strain 18483; type: cell-based, Enterococcus faecium
Description: (§1) • a. Prepare antimicrobial (Abx) Plate ahead of time and store at […] until needed • i. Diluent—Cation Adjusted Mueller Hinton Broth (CAMHB) • ii. Final Vol—50 ul/well • iii. Remove from −80 C and let thaw at 30 min/Room Temp prior to use
(§2) • b. Overnight cultures in CAMHB—37 C/16-18 hrs/500 rpm • i. 10 ul glycerol stock+490 ul CAMHB in 2 mL 96-well Deep Well Plate • c. Normalize cultures to 1.00E+06 CFU/mL by Optical Density (OD) • d. Prepare Test Plate by adding 50 ul normalized test isolate to appropriate wells of Abx Plate as outlined
(§3) • e. Incubate Test Plate at 37 C/4 hrs/no shaking • f. Prepare PCR Reagents according to TABLE XXIX • g. Add 45 ul Master Mix to each well of a PCR Assay Plate • h. Following incubation, stamp 5 ul/well of Test Plate to PCR Assay Plate • i. Final Vol—50 ul/well • i. For Test Plate, continue incubating at 37 C/12-16 hrs/no shaking to determine reference method Minimum Inhibitory Concentration (MIC) • j. Load PCR Assay Plate to cobas z 480 instrument and run under conditions of TABLE XXX. • k. Following incubation read Test Plate for MIC and determine phenotypic Susceptible/Intermediate/Resistant interpretation. […]

E. faecium strain 18446 = assay: PCR-based rapid ID/AST and CLSI susceptibility interpretation, E. faecium strain 18446; type: cell-based, Enterococcus faecium
Description: as §1, §2, §3

S. aureus strain 16405 = assay: PCR-based rapid ID/AST and CLSI susceptibility interpretation, S. aureus strain 16405; type: cell-based, Staphylococcus aureus
Description: as §1, §2
(§4) • e. Incubate Test Plate at 37 C/4 hrs/no shaking • f. Prepare PCR Reagents according to TABLE XXIX • g. Add 45 ul Master Mix to each well of a PCR Assay Plate • h. Following incubation, stamp 5 ul/well of Test Plate to PCR Assay Plate • i. Final Vol—50 ul/well • i. For Test Plate, continue incubating at 37 C/12-16 hrs/no shaking to determine reference method Minimum Inhibitory Concentration (MIC) • j. Load PCR Assay Plate to cobas z 480 instrument and run under conditions of TABLE XXX. • k. Following incubation read Test Plate for MIC and determine phenotypic Susceptible/Intermediate/Resistant interpretation.
(§5) Rapid Identification and phenotypic antimicrobial susceptibility testing of Staphylococcus aureus utilizing three distinct target genes (gyrB, ddlA, tuf) and one class of antibacterial agent, cefoxitin (cephalosporin) was performed. […]

S. aureus strain 15509 = assay: PCR-based rapid ID/AST and CLSI susceptibility interpretation, S. aureus strain 15509; type: cell-based, Staphylococcus aureus
Description: as §1, §2, §4, §5

[1] = test system: A. baumannii strain 16421; assay: PCR-based rapid ID/AST and CLSI susceptibility interpretation, A. baumannii strain 16421; type: cell-based, Acinetobacter baumannii
Description: as §1, §2, §4
(§6) The primer/probe sets used were as follows. […]

[2] = test system: K. pneumoniae strain 0143; assay: PCR-based rapid ID/AST and CLSI susceptibility interpretation, K. pneumoniae strain 0143; type: cell-based, Klebsiella pneumoniae
Description: as §1, §2, §4, §6
(§7) The percentages on the Y-axis depicted as “Fold Change Abx level 1” were determined using the calculation 2^-(Abx_Level_1_Ct−Reference_Ct) or 2^-([…]Ct).

[3] = test system: P. aeruginosa strain 16657; assay: PCR-based rapid ID/AST and CLSI susceptibility interpretation, P. aeruginosa strain 16657; type: cell-based, Pseudomonas aeruginosa
Description: as §1, §2, §4, §6

[4] = test system: A. baumannii strain 17694; assay: PCR-based rapid ID/AST and CLSI susceptibility interpretation, A. baumannii strain 17694; type: cell-based, Acinetobacter baumannii
Description: as §1, §2, §4, §6

[5] = test system: K. pneumoniae strain 16565; assay: PCR-based rapid ID/AST and CLSI susceptibility interpretation, K. pneumoniae strain 16565; type: cell-based, Klebsiella pneumoniae
Description: as §1, §2, §4, §6, §7

[6] = test system: P. aeruginosa strain 17816; assay: PCR-based rapid ID/AST and CLSI susceptibility interpretation, P. aeruginosa strain 17816; type: cell-based, Pseudomonas aeruginosa
Description: as §1, §2, §4, §6

| Compound | antimicrobial susceptibility of the strain to the given antimicrobial (E. faecium strain 18483) | antimicrobial susceptibility of the strain to the given antimicrobial (E. faecium strain 18446) | antimicrobial susceptibility of the strain to the given antimicrobial (S. aureus strain 16405) | antimicrobial susceptibility of the strain to the given antimicrobial (S. aureus strain 15509) | antimicrobial susceptibility of the strain to the given antimicrobial [1] | antimicrobial susceptibility of the strain to the given antimicrobial [2] | antimicrobial susceptibility of the strain to the given antimicrobial [3] | antimicrobial susceptibility of the strain to the given antimicrobial [4] | antimicrobial susceptibility of the strain to the given antimicrobial [5] | antimicrobial susceptibility of the strain to the given antimicrobial [6] |
| --- | --- | --- | --- | --- | --- | --- | --- | --- | --- | --- |
| CC1(C)S[C@@H]2[C@H](NC(=O)[C@H](N)c3ccccc3)C(=O)N2[C@H]1C(=O)O [ampicillin] | resistant | sensitive | – | – | – | – | – | – | – | – |
| CO[C@@]1(NC(=O)Cc2cccs2)C(=O)N2C(C(=O)O)=C(COC(N)=O)CS[C@@H]21 [cefoxitin] | – | – | sensitive | resistant | – | – | – | – | – | – |
| C[C@@H](O)[C@H]1C(=O)N2C(C(=O)O)=C(S[C@@H]3CN[C@H](C(=O)N(C)C)C3)[C@H](C)[C@H]12 [meropenem] | – | – | – | – | sensitive | resistant | resistant | resistant | sensitive | sensitive |
| CN[C@H](CC(C)C)C(=O)N[C@H]1C(=O)N[C@@H](CC(N)=O)C(=O)N[C@H]2C(=O)N[C@H]3C(=O)N[C@H](C(=O)N[C@H](C(=O)O)c4cc(O)cc(O)c4-c4cc3ccc4O)[C@H](O)c3ccc(c(Cl)c3)Oc3cc2cc(c3O[C@@H]2O[C@H](CO)[C@@H](O)[C@H](O)[C@H]2O[C@H]2C[C@](C)(N)[C@H](O)[C@H](C)O2)Oc2ccc(cc2Cl)[C@H]1O [vancomycin] | resistant | sensitive | – | – | – | – | – | – | – | – |
| gentamicin | – | – | – | – | sensitive | resistant | resistant | resistant | sensitive | sensitive |
